Where two headings read alike, the source gives them in different places.
Columns and labels:
[1] = test system: SH-SY5Y (neuroblastoma); test: MTT cell viability, SH-SY5Y; type: cell-based; settings: Homo sapiens, 24 h
Text: (§1) In this study we used human cell culture of tumor origin—SH-SY5Y (neuroblastoma), HeLa (cervical tumor), Hep-2 (larynx carcinoma), A549 (adenocarcinomic human alveolar basal epithelial cells); and normal cell line Hek 293 (human embryonic kidneys)), provided by the Laboratory of Tumor Cell Genetics of the Scientific Research Institute of Carcinogenesis, N.N. Blokhin National Medical Research Center of Oncology, as well as the Institute of Cytology of the Russian Academy of Sciences. While being grown for experiments, cells were cultured at 37 °C in a humidified CO2 atmosphere (5%) in a nutrient medium DMEM (PanEco, Moscow, Russia) and MEM (PanEco, Moscow, Russia), containing fetal bovine serum (10% by volume) (Thermo Fisher Scientific, Paisley, UK), Glutamax (2 mM) (Gibco, Renfrewshire, UK), and penicillin-streptomycin (1% by volume) (PanEco, Moscow, Russia).
(§2) Cell viability was determined by MTT test as described earlier. Cells were seeded in a 96-well plate in the amount of 1 × 10^4 cells/200 µL and cultured at 37 °C in a humidified CO2 atmosphere (5%) in a nutrient medium DMEM (PanEco, Moscow, Russia) and MEM (PanEco, Moscow, Russia). After 24 h of incubation, […] aliquots of test compounds ([…]) dissolved in DMSO were added to the cell cultures, and cells were cultured under the same conditions for 24 h. […] DMSO also was added to the control wells in a volume of 1%.
(§3) After 24 h, […] of MTT (3-(4,5-dimethylthiazol-2-yl)-2,5-diphenyltetrazolium bromide, 5 mg/mL) was added to each well and the plates were additionally incubated for 2 h.
(§4) Using a plate analyzer (Cytation3, BioTek Instruments Inc., Winooski, VT, USA), the optical density was determined at 530 nm. The concentration value causing 50% inhibition of cell population growth (IC50) was determined from dose-dependent curves.

[2] = test system: HeLa (cervical tumor); test: MTT cell viability, HeLa; type: cell-based; settings: Homo sapiens, 24 h
Text: as §1, §2, §3, §4

[3] = test system: Hep-2 (larynx carcinoma); test: MTT cell viability, Hep-2; type: cell-based; settings: Homo sapiens, 24 h
Text: as §1, §2, §3, §4

[4] = test system: A549 (adenocarcinomic human alveolar basal epithelial cells); test: MTT cell viability, A549; type: cell-based; settings: 24 h
Text: as §1, §2, §3, §4

[5] = test system: Hek 293 (human embryonic kidneys); test: MTT cell viability, normal Hek 293; type: cell-based; settings: HEK293, 24 h
Text: as §1, §2, §3, §4

[6] = test system: SH-SY5Y cells; test: Glycolysis flux assay (Seahorse ECAR); type: cell-based, human; settings: for decrease in ECAR: 100 µM, SH-SY5Y, kinetic curves (Figure 3d,e); for glycolytic capacity (ECAR change relative to control): SH-SY5Y (Figure 3c)
Procedure: The ability of compounds to suppress anaerobic glycolysis was studied using the Agilent Seahorse XF96e Analyzer (Seahorse Bioscience, Billerica, MA, USA) by the level of hydrogen proton production in the studied samples on cell lines of neuroblastoma SH-SY5Y [55].
The 30,000 SH-SY5Y cells per well were plated in an XF cell culture microplate (Seahorse Bioscience, Billerica, MA, USA). After plating cells, the microplate was kept overnight in a 37 °C, 5% CO2 incubator. On the following day the medium was aspirated, the cells washed and placed in serum-free, pyruvate-free and glucose-free medium (pH = 7.4). The microplate was kept for 45 min again in a 37° C, 5% CO2 incubator.
When SH-SY5Y cells were analyzed, we followed the procedure described in the Seahorse Glycolysis Stress Test kit. Briefly, initial extracellular acidification rate (ECAR) measurements were taken in the absence of glucose. […] This was followed by an injection of oligomycin from port C so that the final concentration of oligomycin in each well was […]. Lastly, a 25 mM final concentration of 2-deoxyglucose was injected from port D.
Data for each experimental condition derive from values obtained from a minimum of 5 separate wells.

[7] = test system: all cell lines (SH-SY5Y, HeLa, Hep-2, A549, Hek 293); test: MTT cytotoxicity, summary over all cell lines; type: cell-based; settings: Homo sapiens; span over all cell lines
Text: as §1
Cell viability was determined by MTT test as described earlier. Cells were seeded in a 96-well plate in the amount of 1 × 10^4 cells/200 µL and cultured at 37 °C in a humidified CO2 atmosphere (5%) in a nutrient medium DMEM (PanEco, Moscow, Russia) and MEM (PanEco, Moscow, Russia). […]
Using a plate analyzer (Cytation3, BioTek Instruments Inc., Winooski, VT, USA), the optical density was determined at 530 nm. […]

[8] = test system: HeLa (cervical tumor); settings: HeLa column; cited from earlier work

Compound	IC50 [1] [µM]	IC50 [2] [µM]	IC50 [3] [µM]	IC50 [4] [µM]	IC50 [5] [µM]	decrease in ECAR [6]	IC50 [7] [µM]	IC50 [8] [µM]	glycolysis (ECAR change relative to control) ([6]; 100 μM, SH-SY5Y (Figure 3b))	glycolytic capacity (ECAR change relative to control) ([6]; 100 μM)
C[C@H]1CCC[C@]2(C)C[C@H]3OC(=O)C(CNCCn4cc(COCc5ccc6c(c5)OCO6)nn4)[C@H]3C=C12 (some centres unmarked) [7a]	33.6 ± 1.27	39 ± 1.27	55.68 ± 0.52	29.3 ± 1.37	38.9 ± 1.23	more than 50%	29 to 55			
COc1ccc(COCc2cn(CCNC[C@H]3C(=O)O[C@@H]4C[C@@]5(C)CCC[C@H](C)C5=C[C@@H]43)nn2)cc1OC [7d, (3S,3aR,5S,8aR,9aR)-3-(((2-(4-(((3,4-Dimethoxybenzyl)oxy)methyl)-1H-1,2,3-triazol-1-yl)ethyl)amino)methyl)-5,8a-dimethyl-3,3a,6,7,8,8a,9,9a-octahydronaphtho [2,3-b]furan-2(5H)-one]	45.2 ± 1.24	81 ± 3.17	91 ± 2.85	83.5 ± 1.09	35.39 ± 0.29					
COc1ccc(Cn2cc(CNCC3C(=O)O[C@@H]4C[C@@]5(C)CCC[C@H](C)C5=C[C@H]34)nn2)cc1 (some centres unmarked) [11b]	60.38 ± 0.39	72.79 ± 0.07	> 100	70.3 ± 1.17	49.55 ± 0.33					
COc1ccc(Cn2cc(CNCC3C(=O)O[C@@H]4C[C@@]5(C)CCC[C@H](C)C5=C[C@H]34)nn2)cc1OC (some centres unmarked) [11d]	56.1 ± 1.06	89.35 ± 0.4	> 100	91.2 ± 1.54	59.6 ± 1.84					
C=C1C(=O)O[C@@H]2[C@H]3C(C)=CC[C@@]34O[C@@]4(C)CC[C@@H]12 [Arglabin, arglabin, reference compound]	34 ± 2.48		29.9 ± 0.93		78 ± 2.05			20		
C=C1CC[C@H]2[C@H](CNCCn3cc(COCc4cccc(OC)c4OC)nn3)C(=O)O[C@@H]2C2C(=C)CCC12 (stereo partly drawn) [6c, (3R,3aS,9bS)-3-(((2-(4-(((2,3-Dimethoxybenzyl)oxy)methyl)-1H-1,2,3-triazol-1-yl)ethyl)amino)methyl)-6,9-dimethylenedecahydroazuleno [4,5-b]furan-2(9bH)-one]	94.9 ± 1.08	82.4 ± 1.14	> 100	> 100	59.8 ± 1.37					
C=C1CC[C@H]2C(CNCc3cn(Cc4ccc5c(c4)OCO5)nn3)C(=O)O[C@@H]2C2C(=C)CCC12 (some centres unmarked) [10a]	19.3 ± 0.57	18 ± 0.32	> 100	> 100	58.04 ± 0.07	more than 50%				
C=C1CC[C@H]2C(CNCc3cn(Cc4ccc(OC)c(OC)c4)nn3)C(=O)O[C@@H]2C2C(=C)CCC12 (some centres unmarked) [10d]	21.83 ± 0.02	26.4 ± 2.39	82.2 ± 1.15	> 100	> 100					
C=C1CC[C@H]2C(CNCc3cn(Cc4cccc(OC)c4OC)nn3)C(=O)O[C@@H]2C2C(=C)CCC12 (some centres unmarked) [10c]	89.5 ± 2.57	79.59 ± 0.33	> 100	> 100	66.29 ± 0.08					
COc1cccc(Cn2cc(CNCC3C(=O)O[C@@H]4C[C@@]5(C)CCC[C@H](C)C5=C[C@H]34)nn2)c1OC (some centres unmarked) [11c]	> 100	88.2 ± 1.27	> 100	> 100	67.91 ± 0.65					
C=C1CC[C@H]2[C@H](CNCCn3cc(COCc4ccc(OC)cc4)nn3)C(=O)O[C@@H]2C2C(=C)CCC12 (stereo partly drawn) [6b, (3R,3aS,9bS)-3-(((2-(4-(((4-Methoxybenzyl)oxy)methyl)-1H-1,2,3-triazol-1-yl)ethyl)amino)methyl)-6,9-dimethylenedecahydroazuleno [4,5-b]furan-2(9bH)-one]	36.3 ± 2.38	61.52 ± 0.12	> 100	> 100	56.4 ± 1.03					
C=C1CC[C@H]2[C@H](CNCCn3cc(COCc4ccc(OC)c(OC)c4)nn3)C(=O)O[C@@H]2C2C(=C)CCC12 (stereo partly drawn) [6d, (3R,3aS,9bS)-3-(((2-(4-(((3,4-Dimethoxybenzyl)oxy)methyl)-1H-1,2,3-triazol-1-yl)ethyl)amino)methyl)-6,9-dimethylenedecahydroazuleno [4,5-b]furan-2(9bH)-one]	57.8 ± 1.71	> 100	> 100	> 100	69.47 ± 0.54				reaching a minimum	
C=C1CCC2C(CNCCn3cc(COCc4ccc5c(c4)OCO5)nn3)C(=O)OC2C2C(=C)CCC12 [6a, (3R,3aS,9bS)-3-(((2-(4-((Benzo[d][1, 3]dioxol-5-ylmethoxy)methyl)-1H-1,2,3-triazol-1-yl)ethyl)amino)methyl)-6,9-dimethylenedecahydroazuleno [4,5-b]furan-2(9bH)-one]	37.35 ± 0.28	62.4 ± 0.05	88.1 ± 2.66	85.65 ± 0.38	57 ± 1.24	more than 50%				reaching a minimum
C=C1CC[C@H]2C(CNCc3cn(Cc4ccc(OC)cc4)nn3)C(=O)O[C@@H]2C2C(=C)CCC12 (some centres unmarked) [10b]	16.1 ± 0.46	16.6 ± 0.59	26.3 ± 0.38	25.2 ± 3.44	56.65 ± 0.05					
COc1cccc(COCc2cn(CCNC[C@H]3C(=O)O[C@@H]4C[C@@]5(C)CCC[C@H](C)C5=C[C@@H]43)nn2)c1OC [7c, (3S,3aR,5S,8aR,9aR)-3-(((2-(4-(((2,3-Dimethoxybenzyl)oxy)methyl)-1H-1,2,3-triazol-1-yl)ethyl)amino)methyl)-5,8a-dimethyl-3,3a,6,7,8,8a,9,9a-octahydronaphtho [2,3-b]furan-2(5H)-one]	40 ± 1.32	46.6 ± 0.81	62.6 ± 0.72	53.11 ± 0.25	46.25 ± 0.22					
C[C@H]1CCC[C@]2(C)C[C@H]3OC(=O)C(CNCc4cn(Cc5ccc6c(c5)OCO6)nn4)[C@H]3C=C12 (some centres unmarked) [11a]	71.8 ± 2	88.86 ± 0.21	> 100	95.9 ± 1.5	61.43 ± 0.1	more than 50%				reaching a minimum
COc1ccc(COCc2cn(CCNC[C@H]3C(=O)O[C@@H]4C[C@@]5(C)CCC[C@H](C)C5=C[C@@H]43)nn2)cc1 [7b, (3S,3aR,5S,8aR,9aR)-3-(((2-(4-(((4-Methoxybenzyl)oxy)methyl)-1H-1,2,3-triazol-1-yl)ethyl)amino)methyl)-5,8a-dimethyl-3,3a,6,7,8,8a,9,9a-octahydronaphtho [2,3-b]furan-2(5H)-one]	41.7 ± 1.73	55.1 ± 0.94	67.16 ± 0.14	47.3 ± 1.52	42.3 ± 1.09					
